Assays:
HeLa [1] = test: Cytotoxicity against human HeLa cells measured after 48 hrs by SRB assay; format: functional, cell-based
Ca-Ski [2] = test: Cytotoxicity against human CaSki cells measured after 48 hrs by SRB assay; format: functional, cell-based
HeLa [3] = test: Cytotoxicity against human HeLa cells measured after 48 hrs by MTT assay; format: functional, cell-based
Ca-Ski [4] = test: Cytotoxicity against human CaSki cells measured after 48 hrs by MTT assay; format: functional, cell-based
[5] = Drug excretion in rat bile; format: ADME, tissue-based; conditions: read-out: Drug excretion
Vero = test: Cytotoxicity against African green monkey Vero cells measured after 48 hrs by MTT assay; format: cell-based; conditions: Chlorocebus sabaeus
HeLa 229 = test: Cytotoxicity against human HeLa 229 cells measured after 48 hrs by MTT assay; format: functional, cell-based; conditions: HeLa 229, 48 h
HeLa [6] = test: Induction of apoptosis in human HeLa cells measured at 20 mg/L after 48 hrs relative to control; format: functional
HeLa [7] = test: Induction of apoptosis in human HeLa cells measured at 40 mg/L after 48 hrs relative to control; format: functional
[8] = Drug excretion in rat urine; format: ADME, tissue-based; conditions: read-out: Drug excretion
[9] = Drug excretion in rat feces; format: ADME, tissue-based; conditions: faeces, read-out: Drug excretion

Compound	IC50 (HeLa [1])	IC50 (Ca-Ski [2])	IC50 (HeLa [3])	also measured
COc1ccc(N2CCN(Cc3cc(OC)c(O)c4c[n+]5c(cc34)-c3cc4c(cc3CC5)OCO4)CC2)c(OC)c1.[Cl-]	4.35 to 6.32 µg/mL	3.41 to 6.08 µg/mL	–	–
COc1ccc2cc3[n+](cc2c1OCCCCCNc1nc2ccccc2s1)CCc1cc2c(cc1-3)OCO2.[Cl-]	5.47 µg/mL	5.31 µg/mL	–	–
COc1ccc2cc3[n+](cc2c1OCCCCCNc1nc2ccc(F)cc2s1)CCc1cc2c(cc1-3)OCO2.[Cl-]	5.47 µg/mL	5.31 µg/mL	–	–
COc1cc(CN2CCN(c3cccc(C)c3C)CC2)c2cc3[n+](cc2c1O)CCc1cc2c(cc1-3)OCO2.[Cl-]	4.35 to 6.32 µg/mL	3.41 to 6.08 µg/mL	–	–
COc1ccc2cc3[n+](cc2c1OCCCCCNc1nc2ccc(Cl)cc2s1)CCc1cc2c(cc1-3)OCO2.[Cl-]	5.47 µg/mL	5.31 µg/mL	–	–
COc1ccc2cc3[n+](cc2c1OCCCCCNc1nc2ccc(I)cc2s1)CCc1cc2c(cc1-3)OCO2.[Cl-]	5.47 µg/mL	5.31 µg/mL	–	–
COc1ccc2cc3[n+](cc2c1OCCCCCNc1nc2ccc(C(F)(F)F)cc2s1)CCc1cc2c(cc1-3)OCO2.[Cl-]	5.47 µg/mL	5.31 µg/mL	–	–
COc1cc(CN2CCN(c3ccccc3Cl)CC2)c2cc3[n+](cc2c1O)CCc1cc2c(cc1-3)OCO2.[Cl-]	–	–	< 6 µg/mL	IC50 (Ca-Ski [4]): < 6 µg/mL
COc1cc(CN2CCN(c3ccc(OC(F)(F)F)cc3)CC2)c2cc3[n+](cc2c1O)CCc1cc2c(cc1-3)OCO2.[Cl-]	–	–	< 6 µg/mL	IC50 (Ca-Ski [4]): < 6 µg/mL
COc1ccc2cc3[n+](cc2c1OCCCCCNc1nc2ccc(C#N)cc2s1)CCc1cc2c(cc1-3)OCO2.[Cl-]	5.47 µg/mL	5.31 µg/mL	–	–
COc1cc(CN2CCN(c3cccc(Cl)c3Cl)CC2)c2cc3[n+](cc2c1O)CCc1cc2c(cc1-3)OCO2.[Cl-]	4.35 to 6.32 µg/mL	3.41 to 6.08 µg/mL	–	–
COc1cc(CN2CCN(c3ccc(F)cc3F)CC2)c2cc3[n+](cc2c1O)CCc1cc2c(cc1-3)OCO2.[Cl-]	4.35 to 6.32 µg/mL	3.41 to 6.08 µg/mL	–	–
COc1cc(CN2CCN(c3ccccc3[N+](=O)[O-])CC2)c2cc3[n+](cc2c1O)CCc1cc2c(cc1-3)OCO2.[Cl-]	–	–	< 6 µg/mL	IC50 (Ca-Ski [4]): < 6 µg/mL
COc1cc(CN2CCN(c3ccc(Cl)cc3)CC2)c2cc3[n+](cc2c1O)CCc1cc2c(cc1-3)OCO2.[Cl-]	–	–	< 6 µg/mL	IC50 (Ca-Ski [4]): < 6 µg/mL
COc1cc(CN2CCN(c3ccc([N+](=O)[O-])cc3)CC2)c2cc3[n+](cc2c1O)CCc1cc2c(cc1-3)OCO2.[Cl-]	–	–	< 6 µg/mL	IC50 (Ca-Ski [4]): < 6 µg/mL
COc1ccc2cc3[n+](cc2c1OCCCCCNc1nc2ccc(C(=O)O)cc2s1)CCc1cc2c(cc1-3)OCO2.[Cl-]	5.47 µg/mL	5.31 µg/mL	–	–
COc1ccc2cc3[n+](cc2c1OCCCCCNc1nc2ccc(Br)cc2s1)CCc1cc2c(cc1-3)OCO2.[Cl-]	5.47 µg/mL	5.31 µg/mL	–	–
COc1ccc2cc3[n+](cc2c1OCCCCCNc1nc2c(F)cc(F)cc2s1)CCc1cc2c(cc1-3)OCO2.[Cl-]	5.47 µg/mL	5.31 µg/mL	–	–

Compound	IC50 (HeLa [1])	IC50 (Ca-Ski [2])	IC50 (HeLa [3])	also measured
COc1cc(CN2CCN(c3ccc(Cl)c(Cl)c3)CC2)c2cc3[n+](cc2c1O)CCc1cc2c(cc1-3)OCO2.[Cl-]	4.35 to 6.32 µg/mL	3.41 to 6.08 µg/mL	–	–
COc1cc(CN2CCN(c3ccc(F)cc3)CC2)c2cc3[n+](cc2c1O)CCc1cc2c(cc1-3)OCO2.[Cl-]	–	–	< 6 µg/mL	IC50 (Ca-Ski [4]): < 6 µg/mL
COc1cc(CN2CCN(c3cccc(F)c3F)CC2)c2cc3[n+](cc2c1O)CCc1cc2c(cc1-3)OCO2.[Cl-]	4.35 to 6.32 µg/mL	3.41 to 6.08 µg/mL	–	–
COc1ccc2nc(NCCCCCOc3c(OC)ccc4cc5[n+](cc34)CCc3cc4c(cc3-5)OCO4)sc2c1.[Cl-]	5.47 µg/mL	5.31 µg/mL	–	–
COc1cc(CN2CCN(c3ccc(Cl)cc3Cl)CC2)c2cc3[n+](cc2c1O)CCc1cc2c(cc1-3)OCO2.[Cl-]	4.35 to 6.32 µg/mL	3.41 to 6.08 µg/mL	–	–
COc1ccc2cc3[n+](cc2c1OCCCCCNc1nc2ccc([N+](=O)[O-])cc2s1)CCc1cc2c(cc1-3)OCO2.[Cl-]	5.47 µg/mL	5.31 µg/mL	–	–
COc1ccc2cc3[n+](cc2c1OCCCCCNNc1nc2ccccc2s1)CCc1cc2c(cc1-3)OCO2.[Cl-]	5.47 µg/mL	5.31 µg/mL	–	–
COc1cc(CN2CCN(c3cc(Cl)cc(Cl)c3)CC2)c2cc3[n+](cc2c1O)CCc1cc2c(cc1-3)OCO2.[Cl-]	4.35 to 6.32 µg/mL	3.41 to 6.08 µg/mL	–	–
COc1cc(CN2CCN(c3ccccc3F)CC2)c2cc3[n+](cc2c1O)CCc1cc2c(cc1-3)OCO2.[Cl-]	–	–	< 6 µg/mL	IC50 (Ca-Ski [4]): < 6 µg/mL
COc1c(O)ccc2cc3[n+](cc12)CCc1cc2c(cc1-3)OCO2.[Cl-] [THALIFENDINE]	–	–	–	dose excreted [5]: 83%
COc1cc(CN2CCN(c3ccc(C)cc3)CC2)c2cc3[n+](cc2c1O)CCc1cc2c(cc1-3)OCO2.[Cl-]	–	–	< 6 µg/mL	IC50 (Ca-Ski [4]): < 6 µg/mL
COc1cc(CN2CCN(c3ccc(C(F)(F)F)cc3)CC2)c2cc3[n+](cc2c1O)CCc1cc2c(cc1-3)OCO2.[Cl-]	–	–	< 6 µg/mL	IC50 (Ca-Ski [4]): < 6 µg/mL
COc1cc(CN2CCN(c3ccc(C)cc3C)CC2)c2cc3[n+](cc2c1O)CCc1cc2c(cc1-3)OCO2.[Cl-]	4.35 to 6.32 µg/mL	3.41 to 6.08 µg/mL	–	–
CCOc1ccc2nc(NCCCCCOc3c(OC)ccc4cc5[n+](cc34)CCc3cc4c(cc3-5)OCO4)sc2c1.[Cl-]	5.47 µg/mL	5.31 µg/mL	–	–
COc1ccc2cc3[n+](cc2c1OCCCCCNc1nc2ccc(C)cc2s1)CCc1cc2c(cc1-3)OCO2.[Cl-]	5.47 µg/mL	5.31 µg/mL	–	–
COc1cc(CN2CCN(c3cccc(Cl)c3)CC2)c2cc3[n+](cc2c1O)CCc1cc2c(cc1-3)OCO2.[Cl-]	–	–	< 6 µg/mL	IC50 (Ca-Ski [4]): < 6 µg/mL
COc1ccc2cc3[n+](cc2c1OC)CCc1cc2c(cc1-3)OCO2 [BERBERINE]	–	–	12.1 µg/mL	IC50 (Vero): 71.1 µg/mL; IC50 (HeLa 229): 42.9 µM; Activity (HeLa [6]): 16.7%; Activity (HeLa [7]): 29.6%; dose excreted [8]: 0.0939%; dose excreted [9]: 22.7%; dose excreted [5]: 22.8%

Reference: ChEMBL document CHEMBL4342440, “Potential cytotoxic and anti-metastatic effects of berberine on gynaecological cancers with drug-associated resistance” (Eur J Med Chem, 2020)
